Experimental data taken from patent publication US20150152101A1, “ACTIVE COMPOUNDS FOR COMBATING GREASY SKIN” (L'OREAL, priority 2012, published 2015).

What was measured:
Format in all cases: cell-based
corneodesmosin = test: Western blot of corneodesmosin in extracts of treated Episkin reconstructed epidermis; conditions: systemic treatment over 5 days, grade relative to reference, generally for the highest concentration used (tested 1 and 10 μM), (*) = most active
Experimental: (§1) The samples of reconstructed epidermis, received from the company Episkin at six days of reconstruction, were recultured as soon as received in 3.5 ml of differentiation medium (Episkin™ medium) under insert (in immersion) for 48 hours in an incubator (37° C., 5% CO2).
(§2) The epidermis samples were then placed in contact with the test compounds systemically. The Episkin™ differentiation culture medium is changed for a differentiation medium containing the test compounds with 0.1% of final DMSO vehicle. The epidermis samples were recultured in an incubator for 48 hours. A new systemic treatment is performed for a further 72 hours of culture in the incubator.
For the treatment on Episkin™, each test compound was prepared extemporaneously by weighing out and dissolving at 10 mM in DMSO, and was then used to treat 3 samples of reconstructed epidermis. Furthermore, each test compound was used in a proportion of 1 and 10 μM final in the culture medium (0.1% DMSO final). The positive controls used were vitamin D3, retinol and calcipotriol (a vitamin D3 analogue).
The epidermis samples were collected (3 epidermis samples per treatment) for histological analysis and protein extracts (the same reconstructed epidermis is used for the histological study and the protein extract). […]

Ki67 = Ki67 immunolabelling of treated Episkin reconstructed epidermis; conditions: for Ki67: Episkin, systemic treatment over 5 days
Experimental: as §1, §2
(§3) For the treatment on Episkin™, each test compound was prepared extemporaneously by weighing out and dissolving at 10 mM in DMSO, and was then used to treat 3 samples of reconstructed epidermis. […] The positive controls used were vitamin D3, retinol and calcipotriol (a vitamin D3 analogue).
(§4) The epidermis samples were collected (3 epidermis samples per treatment) for histological analysis and protein extracts (the same reconstructed epidermis is used for the histological study and the protein extract).
The epidermis samples were included in OCT for freezing in liquid nitrogen and then stored at −80° C. The blocks obtained were sliced using a cryostat to a thickness of 7 μm, and the slices were dried and stored at −20° C. while awaiting immunolabelling.
The marker chosen for the immunolabellings is Ki67, which affords information regarding a possible modification of the cell proliferation in the basal layer.

[1] = system: Episkin™ reconstructed epidermis; test: HES morphological observation of treated Episkin reconstructed epidermis; conditions: systemic treatment over 5 days
Experimental: as §1, §2, §3, §4
The morphological control of the treated reconstructed epidermis samples was performed by staining with HES (haematoxylin-eosin-saffron) according to a standard protocol on histological slices of the samples included in paraffin (toluene bath: three times 15 minutes; 100° alcohol baths: twice for 1 minute; 95° alcohol baths: 1 minute; rinsing in water baths; haematoxylin bath: once for 2 minutes; rinsing in water baths; short dipping in a hydrochloric acid bath; rinsing in water; eosin bath: once for 1 minute; rinsing in water; short dipping in a 100° alcohol bath; saffron bath (5 minutes); short dipping in a 100° alcohol bath; toluene bath: three times for 2 minutes).

[2] = grade relative to reference, generally for the highest concentration used (tested 1 and 10 μM), (*) = most active

Structure (SMILES) | CDSN (corneodesmosin) | HES [1, 2] | further results
COc1cccc(C2C3=C(Nc4c2c(=O)n(C)c(=O)n4C)c2ccccc2C3=O)c1 (centres unmarked) [Compound (1)] | ++ (*) |  | 
Cn1c2c(c(=O)n(C)c1=O)C(c1cccc(O)c1)C1=C(N2)c2ccccc2C1=O (centres unmarked) [Compound (2)] |  |  | Ki67 (Ki67; grade relative to reference, generally for the highest concentration used (tested 1 and 10 μM)): 0
Cn1c2c(c(=O)n(C)c1=O)C(c1ccc(O)cc1)C1=C(N2)c2ccccc2C1=O (centres unmarked) [Compound (5)] |  |  | Ki67 labelling (FIG. 2) (Ki67; Episkin treated in the absence and presence of compound, result in words): marked, or even occasionally total, decrease of the Ki67 labelling
COc1cc(C2C3=C(Nc4c2c(=O)n(C)c(=O)n4C)c2ccccc2C3=O)cc(OC)c1O (centres unmarked) [Compound (6)] |  | ++ (*) | 
CC1=C(/C=C/C(C)=C/C=C/C(C)=C/CO)C(C)(C)CCC1 [Retinol] |  |  | HES ([1]; 100 μM): 0; Ki67 (Ki67; 100 μM): 0
C=C1CC[C@H](O)C/C1=C/C=C1\CCC[C@]2(C)[C@@H]([C@H](C)CCCC(C)C)CC[C@@H]12 [Vitamin D3] | 0 | 0 | 
